Test results taken from US8058306B2, “Phenyl pyrrole aminoguanidine derivatives” (Action Pharma A/S, priority 2006, dated 2011).
Where “and” joins values, the source holds several entries; their conditions need not be identical. Equal entries are not always repeated. Entries after “also recorded” stand apart in the source; their conditions may differ. Where two headings read alike, the source gives them in different places.

Test: Plasma kinetics in rat following intravenous and oral administration;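 as to AUC0-∞: parameter is AUC from zero to infinity in ng·h/mL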
Type: in vivo, Sprague Dawley rats
Description: This study determined the intravenous pharmacokinetics and oral bioavailability of compound 1 of the invention (see FIG. 1A, structure no. 1), compound 2 of the invention (see FIG. 1D, structure no. 19) and compound 3 of the invention (see FIG. 1I, structure no. 53) following administration to Sprague Dawley rats at a dose level of 10 mg/kg.
Six groups of 3 male rats received either a single intravenous or single oral administration of compound 1, 2 or 3 of the invention at a dose level of 10 mg/kg. Blood samples were obtained at various times after dosing. Plasma samples were analysed for unchanged test item using a suitable LC-MS/MS method. Pharmacokinetic parameters were estimated from individual plasma concentrations.
Eighteen male rats each received either a single intravenous or a single oral administration of either compound 1, 2 or 3 at a dose level of 10 mg/kg. The formulation was orally administered to each animal by gastric gavage and intravenously administered to each animal via a tail vein. The dose was administered at a dose volume of 5 mL/kg. The formulations were administered to each animal according to the details in the following table:
Blood samples (ca 0.3 mL) were removed from the femoral vein of each animal into tubes containing lithium heparin as anticoagulant.
Blood samples were collected from 3 rats at the following times after dose administration: • 3, 6, 15, 45 min and 1.5, 2.5, 4, 6, 8, 24 h post dose. Oral Administration
Blood samples were collected from 3 rats at the following times after dose administration: • 5, 15, 45 min and 1.5, 2.5, 4, 6, 8, 24 h post dose. Processing of Blood Samples
Pharmacokinetic parameters of compound 1, 2 and 3 were derived by non-compartmental analysis using WinNonLin Pro version 5.0.1 (Pharsight 2005). The following parameters were derived, where appropriate, from the individual plasma concentration versus time profiles:
• F % The absolute oral bioavailability calculated as [AUC0-t (oral)*Dose(iv)/AUC0-t (iv)*Dose (oral)]*100 based on mean values derived after oral and intravenous administration Consideration was given to the estimation of λz and corresponding t1/2 values. Three or more points are required within the terminal phase for λz and t1/2 to be estimated. The following additional variables were tabulated to aid identification of potentially unreliable estimates of t1/2 and AUC:
Pharmacokinetic parameters were reported as geometric mean except Tmax which was reported as the median. Geometric coefficient of variation was calculated as: […]
Actual sampling times were used for all calculations of pharmacokinetic parameters. Plasma concentrations that were below the limit of quantification were taken as zero for the pharmacokinetic analysis.

[1] = intravenous 10 mg/kg, male rats, individual animals, acetate, 10 mg/kg
[2] = male, Sprague Dawley, rat, plasma, iv, 10 mg/kg, single intravenous 10 mg/kg, male rats, individual animals, read-out: Sample Concentration in plasma
[3] = male, Sprague Dawley, rat, plasma, iv, 10 mg/kg, single intravenous 10 mg/kg, male rats, mean of 3, read-out: Mean Concentration in plasma

In the case of `N=C(N)NN=CC=Cc1cccn1-c1ccc(Cl)cc1` [Compound 1, [1-(4-chlorophenyl)-1H-pyrrol-2-yl-allylideneamino]guanidinium acetate], the bioavailability (Sprague Dawley, rat, plasma, 10 mg/kg oral vs intravenous, male rats, from mean AUC0-t, read-out: Mean absolute oral bioavailability) is reported as 34.8%, the “Between-animal variability in systemic exposure, coefficient of variation (CV) of AUC0-t” value (intravenous 10 mg/kg, male rats) is reported as “less than 20%” and the “AUC0-∞” value [1] is reported as 3755 ng·h/mL and 3394 ng·h/mL. The AUC(0-t) [1] was 3662 ng·h/mL and 3262 ng·h/mL, the C0 [1] was 5834 ng/mL and 2729 ng/mL and the CL [1] was 45.15 mL/min/kg and 49.85 mL/min/kg. For the same compound, the MRT [1] was 5.76 h, the Vss [1] was 15.606 L/kg and 19.225 L/kg and the t1/2 [1] was 4.87 h and 5.44 h. The “Systemic clearance (in words)” value (intravenous 10 mg/kg, rats) was “moderate”, the “volume of distribution compared with total body water (in words)” value (intravenous 10 mg/kg, rats, total body water 668 mL/kg, acetate, 10 mg/kg) was “exceeded the total body water; also recorded: markedly greater than that of the total body water” and the “systemic plasma clearance (CL) as share of hepatic blood flow in rats” value (intravenous 10 mg/kg, hepatic blood flow 3312 mL/h/kg) was “approximately 82%”. For the same compound, the AUC(0-inf) (male, Sprague Dawley, rat, plasma, iv, 10 mg/kg, intravenous 10 mg/kg, male rats, Arithmetic Mean) was 3780 ng·h/mL, the AUC(0-t) (male, Sprague Dawley, rat, plasma, iv, 10 mg/kg, intravenous 10 mg/kg, male rats, Arithmetic Mean, read-out: AUC0-t) was 3600 ng·h/mL and the C0 (male, Sprague Dawley, rat, plasma, iv, 10 mg/kg, intravenous 10 mg/kg, male rats, Arithmetic Mean, read-out: C0) was 4210 ng/mL. It also gave a clearance (male, Sprague Dawley, rat, plasma, iv, 10 mg/kg, intravenous 10 mg/kg, male rats, Arithmetic Mean, read-out: CL (converted)) of 45.3 mL/min/kg, an MRT (male, Sprague Dawley, rat, plasma, iv, 10 mg/kg, intravenous 10 mg/kg, male rats, Arithmetic Mean, read-out: MRT) of 6.5 h and a Vd (male, Sprague Dawley, rat, plasma, iv, 10 mg/kg, intravenous 10 mg/kg, male rats, Arithmetic Mean, read-out: Vss) of 17.6 L/kg. The half-life (male, Sprague Dawley, rat, plasma, iv, 10 mg/kg, intravenous 10 mg/kg, male rats, Arithmetic Mean, read-out: t1/2 (converted)) was 5.77 h, the AUC(0-inf) (male, Sprague Dawley, rat, plasma, iv, 10 mg/kg, intravenous 10 mg/kg, male rats, Geometric mean) was 3760 ng·h/mL and the AUC(0-t) (male, Sprague Dawley, rat, plasma, iv, 10 mg/kg, intravenous 10 mg/kg, male rats, Geometric mean, read-out: AUC0-t) was 3590 ng·h/mL. The C0 (male, Sprague Dawley, rat, plasma, iv, 10 mg/kg, intravenous 10 mg/kg, male rats, Geometric mean, read-out: C0) was 4020 ng/mL, the clearance (male, Sprague Dawley, rat, plasma, iv, 10 mg/kg, intravenous 10 mg/kg, male rats, Geometric mean, read-out: CL (systemic plasma clearance) (converted)) was 45.1 mL/min/kg and the MRT (male, Sprague Dawley, rat, plasma, iv, 10 mg/kg, intravenous 10 mg/kg, male rats, Geometric mean, read-out: MRT) was 6.47 h. For the same compound, the Vd (male, Sprague Dawley, rat, plasma, iv, 10 mg/kg, intravenous 10 mg/kg, male rats, Geometric mean, read-out: Vss (mean apparent volume of distribution)) was 17.5 L/kg, the half-life (male, Sprague Dawley, rat, plasma, iv, 10 mg/kg, intravenous 10 mg/kg, male rats, Geometric mean, read-out: t1/2 (mean apparent terminal half-life) (converted)) was 5.7 h and the AUC(0-inf) (male, Sprague Dawley, rat, plasma, iv, 10 mg/kg, intravenous 10 mg/kg, male rats, Median) was 3760 ng·h/mL. It also gave an AUC(0-t) (male, Sprague Dawley, rat, plasma, iv, 10 mg/kg, intravenous 10 mg/kg, male rats, Median, read-out: AUC0-t) of 3660 ng·h/mL, a C0 (male, Sprague Dawley, rat, plasma, iv, 10 mg/kg, intravenous 10 mg/kg, male rats, Median, read-out: C0) of 4070 ng/mL and a clearance (male, Sprague Dawley, rat, plasma, iv, 10 mg/kg, intravenous 10 mg/kg, male rats, Median, read-out: CL (converted)) of 45.1 mL/min/kg. For the same compound, the MRT (male, Sprague Dawley, rat, plasma, iv, 10 mg/kg, intravenous 10 mg/kg, male rats, Median, read-out: MRT) was 6.43 h, the Vd (male, Sprague Dawley, rat, plasma, iv, 10 mg/kg, intravenous 10 mg/kg, male rats, Median, read-out: Vss) was 17.9 L/kg and the half-life (male, Sprague Dawley, rat, plasma, iv, 10 mg/kg, intravenous 10 mg/kg, male rats, Median, read-out: t1/2 (converted)) was 5.44 h. The AUC(0-inf) (male, Sprague Dawley, rat, plasma, iv, 10 mg/kg, intravenous 10 mg/kg, male rats, individual animals) was 4180 ng·h/mL, the AUC(0-t) (male, Sprague Dawley, rat, plasma, iv, 10 mg/kg, intravenous 10 mg/kg, male rats, individual animals, read-out: AUC0-t) was 3870 ng·h/mL and the clearance (male, Sprague Dawley, rat, plasma, iv, 10 mg/kg, intravenous 10 mg/kg, male rats, individual animals, read-out: CL (converted)) was 40.9 mL/min/kg. For the same compound, the MRT (male, Sprague Dawley, rat, plasma, iv, 10 mg/kg, intravenous 10 mg/kg, male rats, individual animals, read-out: MRT) was 7.31 h, the Vd (male, Sprague Dawley, rat, plasma, iv, 10 mg/kg, intravenous 10 mg/kg, male rats, individual animals, read-out: Vss) was 17.9 L/kg and the half-life (male, Sprague Dawley, rat, plasma, iv, 10 mg/kg, intravenous 10 mg/kg, male rats, individual animals, read-out: t1/2 (converted)) was 7 h. It also gave a concentration at 0.05 h (male, Sprague Dawley, rat, plasma, iv, 10 mg/kg, single intravenous 10 mg/kg, male rats, 0.05 h (3 min), mean of 3, read-out: Mean Concentration in plasma) of 2250 ng/mL, a concentration at 0.1 h [2] of 941 ng/mL and a concentration at 0.1 h [3] of 1120 ng/mL. It also gave a concentration at 0.25 h [2] of 589 ng/mL, a concentration at 0.25 h [3] of 705 ng/mL and a concentration at 0.75 h [2] of 441 ng/mL. It also gave a concentration at 0.75 h [3] of 392 ng/mL, a concentration at 1.5 h [2] of 347 ng/mL and a concentration at 1.5 h [3] of 308 ng/mL. For the same compound, the concentration at 2.5 h [2] was 239 ng/mL, the concentration at 2.5 h [3] was 233 ng/mL and the concentration at 4 h [2] was 317 ng/mL. The concentration at 4 h [3] was 254 ng/mL, the concentration at 6 h [2] was 140 ng/mL and the concentration at 6 h [3] was 160 ng/mL. For the same compound, the concentration at 8 h (male, Sprague Dawley, rat, plasma, iv, 10 mg/kg, single intravenous 10 mg/kg, male rats, 8 h, mean, read-out: Mean Concentration in plasma) was 97 ng/mL, the concentration at 24 h (male, Sprague Dawley, rat, plasma, iv, 10 mg/kg, single intravenous 10 mg/kg, male rats, 24 h, mean, read-out: Mean Concentration in plasma) was 20.2 ng/mL and the AUC(0-t) (male, Sprague Dawley, rat, plasma, po, 10 mg/kg, oral 10 mg/kg, male rats, Arithmetic Mean, read-out: AUC0-t) was 1350 ng·h/mL.
